Source: ChEMBL document CHEMBL4177737, “Identification of bicyclic hexafluoroisopropyl alcohol sulfonamides as retinoic acid receptor-related orphan receptor gamma (RORγ/RORc) inverse agonists. Employing structure-based drug design to improve pregnane X receptor (PXR) selectivity” (Bioorg Med Chem Lett, 2018)

Key:
[1] = target: T1, Oxysterols receptor LXR-alpha (Homo sapiens, UniProt Q13133); assay: Agonist activity at GAL4-tagged human LXRalpha assessed as receptor activation expressed in African green monkey CV1 cells by luciferase reporter gene assay; type: cell-based
T1 sequence (Q13133 whole entry): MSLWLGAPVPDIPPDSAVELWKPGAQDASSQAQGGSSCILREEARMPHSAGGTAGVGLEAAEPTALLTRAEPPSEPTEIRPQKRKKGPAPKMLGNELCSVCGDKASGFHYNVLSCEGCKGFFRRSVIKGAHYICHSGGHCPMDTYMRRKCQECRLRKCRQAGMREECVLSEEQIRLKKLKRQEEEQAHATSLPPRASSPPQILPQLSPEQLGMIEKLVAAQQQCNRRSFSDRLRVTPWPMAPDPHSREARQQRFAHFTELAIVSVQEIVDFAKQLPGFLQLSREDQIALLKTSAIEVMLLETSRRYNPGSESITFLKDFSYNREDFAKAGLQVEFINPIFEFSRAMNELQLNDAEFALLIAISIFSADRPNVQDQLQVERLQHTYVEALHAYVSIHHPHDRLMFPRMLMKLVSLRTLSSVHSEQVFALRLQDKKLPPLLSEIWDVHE

[2] = Stability in mouse liver microsomes assessed as parent compound remaining incubated for 10 mins; type: ADME, microsome
[3] = target: T2, Oxysterols receptor LXR-beta (Homo sapiens, UniProt P55055); assay: Agonist activity at GAL4-tagged human LXRbeta assessed as receptor activation expressed in African green monkey CV1 cells by luciferase reporter gene assay; type: cell-based
T2 sequence (P55055 whole entry): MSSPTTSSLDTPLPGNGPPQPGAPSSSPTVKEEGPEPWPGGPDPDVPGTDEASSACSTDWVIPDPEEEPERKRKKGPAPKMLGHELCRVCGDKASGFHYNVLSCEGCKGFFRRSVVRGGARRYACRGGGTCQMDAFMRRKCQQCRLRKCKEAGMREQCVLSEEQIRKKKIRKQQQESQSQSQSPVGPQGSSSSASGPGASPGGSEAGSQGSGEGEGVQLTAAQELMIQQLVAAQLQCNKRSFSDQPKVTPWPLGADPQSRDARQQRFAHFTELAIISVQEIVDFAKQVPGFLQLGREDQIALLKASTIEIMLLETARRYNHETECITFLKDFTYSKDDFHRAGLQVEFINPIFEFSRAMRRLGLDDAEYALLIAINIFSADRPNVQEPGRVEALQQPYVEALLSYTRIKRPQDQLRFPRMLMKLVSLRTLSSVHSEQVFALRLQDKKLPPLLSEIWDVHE

[4] = Stability in human liver microsomes assessed as parent compound remaining incubated for 10 mins; type: ADME, microsome; details: for Stability: microsomes, 10 min
[5] = target: T3, Nuclear receptor subfamily 1 group I member 2 (Homo sapiens, UniProt O75469); assay: (§1) Transactivation of PXR in human HepG2 cells by receptor transactivation assay relative to untreated control; type: ADME, cell-based; details: hepg2
T3 sequence (O75469 whole entry): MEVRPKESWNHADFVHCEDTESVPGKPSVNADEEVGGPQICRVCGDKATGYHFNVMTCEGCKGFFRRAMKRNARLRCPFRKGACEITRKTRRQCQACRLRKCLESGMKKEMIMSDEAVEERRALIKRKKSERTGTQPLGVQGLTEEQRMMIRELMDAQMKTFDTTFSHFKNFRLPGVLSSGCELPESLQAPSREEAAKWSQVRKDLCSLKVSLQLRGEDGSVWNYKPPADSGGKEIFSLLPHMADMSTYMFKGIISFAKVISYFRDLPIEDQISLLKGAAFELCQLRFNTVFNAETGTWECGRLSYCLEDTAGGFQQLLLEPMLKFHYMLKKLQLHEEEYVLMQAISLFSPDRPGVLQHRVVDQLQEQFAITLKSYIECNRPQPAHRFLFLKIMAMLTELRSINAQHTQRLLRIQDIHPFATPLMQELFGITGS

[6] = target: T3, Nuclear receptor subfamily 1 group I member 2; assay: Transactivation of PXR in human HepG2 cells by receptor transactivation assay; type: ADME, cell-based
[7] = Drug level in Balb/c mouse at 100 mg/kg, po BID measured at 23.5 hrs on day 1; type: ADME, organism-based; details: in vivo, read-out: Drug uptake
[8] = Drug level in Balb/c mouse at 30 mg/kg, po BID measured at 1 hr on day 1; type: ADME, organism-based; details: in vivo, read-out: Drug uptake
[9] = Drug level in Balb/c mouse at 30 mg/kg, po BID measured at 23.5 hrs on day 5; type: ADME, organism-based; details: in vivo, read-out: Drug uptake
[10] = Drug level in Balb/c mouse at 30 mg/kg, po BID measured at 7.5 hrs on day 1; type: ADME, organism-based; details: in vivo, read-out: Drug uptake
[11] = Drug level in Balb/c mouse at 100 mg/kg, po BID measured at 1 hr on day 1; type: ADME, organism-based; details: in vivo, read-out: Drug uptake
[12] = Drug level in Balb/c mouse at 30 mg/kg, po BID measured at 1 hr on day 5; type: ADME, organism-based; details: in vivo, read-out: Drug uptake
Mus musculus [13] = assay: Inhibition of IL-2/IL-23 induced IL-17 production in C57BL/6 mouse challenged 3 times with IL-2/IL-23 (at 0, 7 and 23 hrs) after IL-2 alone priming (-24 hrs) at 50 mg/kg, po dosed 30 mins prior to each IL-2/IL-23 co-administration and measured after 7 hrs post last IL-2/IL-23 challenge; type: functional; details: C57BL/6, po
Mus musculus [14] = assay: Inhibition of IL-2/IL-23 induced IL-17 production in C57BL/6 mouse challenged 3 times with IL-2/IL-23 (at 0, 7 and 23 hrs) after IL-2 alone priming (-24 hrs) at 25 mg/kg, po dosed 30 mins prior to each IL-2/IL-23 co-administration and measured after 7 hrs post last IL-2/IL-23 challenge; type: functional; details: C57BL/6, po
[15] = Drug level in Balb/c mouse at 30 mg/kg, po BID measured at 7.5 hrs on day 5; type: ADME, organism-based; details: in vivo, read-out: Drug uptake
[16] = Drug level in Balb/c mouse at 30 mg/kg, po BID measured at 23.5 hrs on day 1; type: ADME, organism-based; details: in vivo, read-out: Drug uptake
[17] = Drug level in Balb/c mouse at 100 mg/kg, po BID measured at 7.5 hrs on day 5; type: ADME, organism-based; details: in vivo, read-out: Drug uptake
[18] = Drug level in Balb/c mouse at 100 mg/kg, po BID measured at 7.5 hrs on day 1; type: ADME, organism-based; details: in vivo, read-out: Drug uptake
[19] = Drug level in Balb/c mouse at 100 mg/kg, po BID measured at 1 hr on day 5; type: ADME, organism-based; details: in vivo, read-out: Drug uptake
PXR (NR1I2) = target: T4, PXR (NR1I2) (Homo sapiens, UniProt O75469); assay: as §1; type: ADME, cell-based; details: HepG2 cells, read-out: %max
T4 sequence (O75469 whole entry): T3 sequence (O75469 whole entry)

[20] = target: T5, Nuclear receptor ROR-beta (Homo sapiens, UniProt Q92753); assay: Agonist activity at Gal4-tagged human RORbeta ligand binding domain expressed in human Jurkat cells by native IL17 promoter driven luciferase reporter gene assay; type: cell-based
T5 sequence (Q92753 whole entry): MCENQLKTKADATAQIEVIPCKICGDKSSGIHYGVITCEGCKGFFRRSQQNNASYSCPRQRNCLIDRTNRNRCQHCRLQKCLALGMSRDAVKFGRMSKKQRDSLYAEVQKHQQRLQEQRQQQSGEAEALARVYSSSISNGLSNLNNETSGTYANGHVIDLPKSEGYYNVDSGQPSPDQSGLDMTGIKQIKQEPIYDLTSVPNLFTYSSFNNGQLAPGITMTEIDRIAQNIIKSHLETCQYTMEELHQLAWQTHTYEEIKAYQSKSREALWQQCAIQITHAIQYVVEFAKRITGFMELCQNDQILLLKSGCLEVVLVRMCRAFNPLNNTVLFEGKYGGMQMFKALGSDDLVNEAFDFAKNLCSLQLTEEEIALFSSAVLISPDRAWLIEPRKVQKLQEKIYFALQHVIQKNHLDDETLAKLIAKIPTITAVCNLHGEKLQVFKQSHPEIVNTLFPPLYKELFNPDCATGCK

[21] = target: T5, Nuclear receptor ROR-beta; assay: Inverse agonist activity at Gal4-tagged human RORbeta ligand binding domain expressed in human Jurkat cells by native IL17 promoter driven luciferase reporter gene assay; type: cell-based
[22] = target: T6, Nuclear receptor ROR-alpha (Homo sapiens, UniProt P35398); assay: Agonist activity at Gal4-tagged human RORalpha ligand binding domain expressed in human Jurkat cells by native IL17 promoter driven luciferase reporter gene assay; type: cell-based
T6 sequence (P35398 whole entry): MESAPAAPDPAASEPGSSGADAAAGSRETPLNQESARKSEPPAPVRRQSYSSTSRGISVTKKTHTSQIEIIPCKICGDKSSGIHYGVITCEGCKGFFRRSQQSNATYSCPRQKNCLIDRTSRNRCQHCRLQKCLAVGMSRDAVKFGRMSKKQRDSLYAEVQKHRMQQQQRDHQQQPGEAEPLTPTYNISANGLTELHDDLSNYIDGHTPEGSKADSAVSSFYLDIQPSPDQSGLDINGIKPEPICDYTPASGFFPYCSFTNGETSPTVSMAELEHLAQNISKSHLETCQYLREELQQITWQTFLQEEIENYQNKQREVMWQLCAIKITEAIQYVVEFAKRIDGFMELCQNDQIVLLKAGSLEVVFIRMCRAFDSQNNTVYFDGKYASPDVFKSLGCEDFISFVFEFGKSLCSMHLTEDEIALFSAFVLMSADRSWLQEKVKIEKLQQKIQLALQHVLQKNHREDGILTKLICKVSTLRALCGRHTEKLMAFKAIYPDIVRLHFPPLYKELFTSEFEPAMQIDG

[23] = target: T7, Nuclear receptor ROR-gamma (Homo sapiens, UniProt P51449); assay: Inverse agonist activity at Gal4-tagged human RORgammat ligand binding domain expressed in human Jurkat cells by native IL17 promoter driven luciferase reporter gene assay; type: cell-based
T7 sequence (P51449 whole entry): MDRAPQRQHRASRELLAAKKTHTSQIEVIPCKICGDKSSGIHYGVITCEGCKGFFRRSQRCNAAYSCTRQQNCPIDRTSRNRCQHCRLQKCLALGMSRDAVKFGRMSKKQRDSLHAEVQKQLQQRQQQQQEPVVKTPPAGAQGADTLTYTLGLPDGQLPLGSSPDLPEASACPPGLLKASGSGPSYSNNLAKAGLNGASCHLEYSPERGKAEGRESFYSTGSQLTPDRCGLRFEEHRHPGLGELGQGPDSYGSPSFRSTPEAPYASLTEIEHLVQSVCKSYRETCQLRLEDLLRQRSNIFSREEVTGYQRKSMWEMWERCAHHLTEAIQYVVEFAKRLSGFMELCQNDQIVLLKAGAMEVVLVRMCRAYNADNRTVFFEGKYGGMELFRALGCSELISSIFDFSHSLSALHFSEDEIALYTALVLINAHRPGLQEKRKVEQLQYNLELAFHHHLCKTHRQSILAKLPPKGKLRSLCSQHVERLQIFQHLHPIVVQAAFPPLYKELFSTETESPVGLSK

[24] = target: T6, Nuclear receptor ROR-alpha; assay: Inverse agonist activity at Gal4-tagged human RORalpha ligand binding domain expressed in human Jurkat cells by native IL17 promoter driven luciferase reporter gene assay; type: cell-based
[25] = target: T7, Nuclear receptor ROR-gamma; assay: Agonist activity at Gal4-tagged human RORgammat ligand binding domain expressed in human Jurkat cells by native IL17 promoter driven luciferase reporter gene assay; type: cell-based
[26] = liver microsomes, read-out: Stability

SMILES: CC(C)(O)CNC(=O)CC1CSc2cc(C(O)(C(F)(F)F)C(F)(F)F)ccc2N1S(=O)(=O)c1ccc(F)cc1 (stereo in doubt; 31)
- EC50 [1]: 315 nM
- Stability ([2]; microsomes, 10 min): 1%
- EC50 [3]: 3710 nM
- Stability [4]: 2%
- %max [5]: 70%
- EC50 [6]: 1350 nM

SMILES: CC(C)(O)CNC(=O)CC1CSc2cc(C(O)(C(F)(F)F)C(F)(F)F)ccc2N1S(=O)(=O)c1ccc(F)cc1 (stereo in doubt; 30)
- EC50 [1]: > 7500 nM
- EC50 [3]: > 7500 nM
- Stability [4]: 5%
- %max [5]: 90%
- EC50 [6]: 1100 nM

SMILES: CC(C)(O)[C@H](F)CNC(=O)C[C@@H]1CCc2cc(C(O)(C(F)(F)F)C(F)(F)F)ccc2N1S(=O)(=O)c1ccc(F)cc1
- concentration at 23.5 h [7]: 19 nM
- EC50 [1]: > 7500 nM
- remaining at 10 min [2, 26]: 62%
- concentration at 1 h [8]: 3490 nM
- concentration at 23.5 h [9]: 5 nM
- concentration at 7.5 h [10]: 134 nM
- concentration at 1 h [11]: 13900 nM
- concentration at 1 h [12]: 555 nM
- inhibition in vivo at 50 mg/kg (Mus musculus [13]): 98%
- inhibition in vivo at 25 mg/kg (Mus musculus [14]): 74%
- concentration at 7.5 h [15]: 21 nM
- EC50 [3]: > 7500 nM
- concentration at 23.5 h [16]: 5 nM
- concentration at 7.5 h [17]: 61 nM
- remaining at 10 min [4, 26]: 56%
- concentration at 7.5 h [18]: 2460 nM
- concentration at 1 h [19]: 2830 nM
- Emax (PXR (NR1I2)): 100%
- EC50 [6]: 2000 nM

SMILES: O=S(=O)(c1ccc(F)cc1)N1CCSc2cc(C(O)(C(F)(F)F)C(F)(F)F)ccc21
- EC50 [1]: 190 nM
- EC50 [20]: > 4000 nM
- EC50 [21]: > 2000 nM
- EC50 [22]: > 4000 nM
- EC50 [23]: 165 nM
- EC50 [3]: 185 nM
- EC50 [24]: > 2000 nM
- EC50 [25]: > 4000 nM
- Emax (PXR (NR1I2)): 100%
- EC50 [6]: 20 nM
